{"source": "patent US10975123B2", "about": "“Mutant Akt-specific capture agents, compositions, and methods of using and making” (California Institute of Technology, priority 2014, dated 2021)", "key": {"[1]": {"biological_target": "T1, E17K 33-mer epitope (PH Domain fragment of Akt1) (Homo sapiens, UniProt P31749, E17K/H13K)", "T1 construct": "made in house; host or cells: chemical synthesis (Fmoc SPPS)", "T1 sequence (P31749 1-33 H13K/E17K limits assumed)": "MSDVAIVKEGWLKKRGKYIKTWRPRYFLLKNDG", "experiment": "Fluorescence polarization binding to E17K mutant epitope", "conditions": "yleaf peptide 4, fluorescence polarization in solution, triplicate", "description": "FIG. 2: Anchor ligand structure and characterization. (FIG. 2A) The peptide anchor ligand, yleaf (SEQ ID NO: 43), which was discovered using the epitope-targeting technique. The different sets of R groups indicate the modifications that were made to perform the various experiments described. (FIG. 2B) Point ELISA for specificity obtained by immobilizing biotinylated yleaf (SEQ ID NO: 43) anchor ligand 2 onto a Neutravidin plate, then incubating with a 6 His-tagged epitope (“6 His” disclosed as SEQ ID NO: 4) 3. […] (FIG. 2C) Binding curves of yleaf (SEQ ID NO: 43) anchor ligand 4 to the full-length WT or E17K mutant Akt1 proteins obtained in solution by fluorescence polarization. A saturation point for the WT ligand was not reached due to the prohibitively high protein concentration required. (FIG. 2D) Full binding curves of yleaf (SEQ ID NO: 43) anchor ligand 4 to the WT or E17K mutant epitopes. […] All assays were performed in triplicate and averaged. Error bars indicate standard deviation.\n(§1) The selectivity of the yleaf (SEQ ID NO: 43) peptide for the E17K 33-mer epitope was also tested in an ELISA assay format. For these assays, the WT or E17K 33-mer peptide fragments were captured using the PEG-biotin-modified yleaf (SEQ ID NO: 43) ligand immobilized on a neutravidin-coated plate."}, "GST-Akt1(E17K) protein": {"biological_target": "T2, GST-Akt1(E17K) protein (Homo sapiens, UniProt P31749, E17K)", "T2 construct": "50 μL of full-length GST-E17K Akt1 from SignalChem was treated with 10× molar excess of the anchor ligand; purchased SignalChem", "T2 sequence (P31749 whole entry E17K)": "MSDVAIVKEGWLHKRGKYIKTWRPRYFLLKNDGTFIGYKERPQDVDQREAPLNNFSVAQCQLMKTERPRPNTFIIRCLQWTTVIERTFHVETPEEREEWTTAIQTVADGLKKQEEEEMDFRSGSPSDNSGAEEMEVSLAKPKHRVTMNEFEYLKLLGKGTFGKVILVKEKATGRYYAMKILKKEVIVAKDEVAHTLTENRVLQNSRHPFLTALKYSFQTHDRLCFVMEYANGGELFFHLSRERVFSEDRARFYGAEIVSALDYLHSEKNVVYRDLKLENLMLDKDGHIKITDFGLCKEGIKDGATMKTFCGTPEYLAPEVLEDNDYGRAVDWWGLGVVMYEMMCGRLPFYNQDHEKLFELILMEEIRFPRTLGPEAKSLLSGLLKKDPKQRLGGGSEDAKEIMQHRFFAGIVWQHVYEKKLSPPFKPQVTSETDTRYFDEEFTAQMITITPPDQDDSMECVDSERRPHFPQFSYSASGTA", "experiment": "Ligand-directed tosylate labeling with MALDI-TOF MS of tryptic digests", "type": "binding", "conditions": "yleaf with N-terminal tosylate-Cy5 (ligand 5), 10x molar excess, two days room temperature", "excerpt": "The selectivity of the yleaf ligand was further verified using the directed labeling technique reported by Tsukiji et al^19. The approach yields information relative to the binding location of the ligand on the protein target. For this method, a payload is attached to the N-terminus of the targeting yleaf ligand through an electrophilic tosylate linker. Upon ligand binding to the protein target, the payload is transferred onto the protein through a nucleophilic SN2 reaction with proximal nucleophilic amino acid side chains (FIG. 3a). The protein can then be trypsin digested and the identity of the fragments containing the payload can be mapped on the protein surface using mass spectrometry (MS). Thus, the site of ligand binding can be estimated. […]\nFor the assay, yleaf was modified at the N-terminus to contain a tosylate linker attached to a Cy5 dye molecule to enable easy identification of the labeled and digested protein fragments (FIG. 2a and FIG. 16). […] The labeling of protein target was initially confirmed by visualization on a fluorescent gel reader (FIG. 3b) as well as a Western blotting visualization of an experiment in which a biotin-label was substituted for the fluorescent tag. The labeled protein and an unlabeled control were then trypsin digested from the gel and were analyzed by matrix-assisted laser desorption/ionization time-of-flight (MALDI-TOF) MS (FIGS. 18 and 19). […]"}, "[2]": {"system": "E17K 33-mer epitope vs WT 33-mer epitope (6His-tagged)", "experiment": "Point ELISA with anchor ligand and 33-mer epitope", "type": "binding", "conditions": "PEG-biotin-modified yleaf on neutravidin plate; epitope 100 nM-1 μM, in words", "description": "as §1\nFor these assays, 100 nM Biotin-PEG5-yleaf (SEQ ID NO: 43) (FIG. 12) was immobilized for one hour on a neutravidin-coated ELISA plate (Pierce). The plate was blocked in 5% BSA in 1×TBS for one hour, then again overnight at room temperature. The immobilized anchor was then incubated with either 1 μM or 100 nM wildtype 33-mer epitope or 1 μM or 100 nM E17K mutant 33-mer epitope for one hour. The plate was washed three times with 1×TBS+0.1% Tween-20 and tapped dry. The epitope was then detected by a 1:1,000 dilution of an anti-his mouse mAb (ab18184, Abcam) for one hour, washed as above, and then detected with 1:10,000 dilution of an anti-mouse HRP-conjugated goat pAb (Abcam) for one hour. The plate was once again washed and developed with a 1:1 TMB substrate (KMB) for 15 minutes. To graph the data, the blank (epitope and antibodies binding to plate with no anchor ligand present) was subtracted from the triplicate sample values. […] The triplicate values were then graphed (FIG. 1C) with their error bars and the p-values were calculated by GraphPad."}}, "note": "Where a SMILES comes first, the peptide text is derived from it. [ ]: non-standard residue; d: D form.", "data": [{"compound": "CC(C)C[C@@H](NC(=O)[C@H](N)Cc1ccc(O)cc1)C(=O)N[C@H](CCC(=O)O)C(=O)N[C@H](C)C(=O)N[C@H](Cc1ccccc1)C(N)=O", "note": "[yleaf] (H-[dY][dL][dE][dA][dF]-NH2; N-terminus assumed)", "values": [{"measurement": "Kd", "setting": "[1]", "value": "328 ± 96", "unit": "nM"}, {"measurement": "location of labeled sites on the protein (binding site, off-target binding)", "setting": "GST-Akt1(E17K) protein", "value": "only sites around the expected N-terminal binding site of the yleaf ligand are labeled"}, {"measurement": "selectivity for E17K 33-mer fragment over WT in point ELISA", "setting": "[2]", "value": "significant selectivity for the E17K fragment over the WT"}]}]}
